One block for each molecule: values may come before it. Activity calls are given as the source filed them.
How the values were obtained:
HeLa = experiment: HeLa cell cytotoxicity, dose response, cytotoxicity control for MITF activator project, CellTiter-Glo luminescence, cherry-pick samples (AID 540259); assay type: functional, cell-based; conditions: Homo sapiens
CAAX prenyl protease 2 [1] = target: CAAX prenyl protease 2 (Homo sapiens, UniProt Q9Y256); experiment: human Rce1 protease inhibitors, dose response, biochemical, yeast membranes, quenched-peptide fluorescence, cherry-pick (AID 588849)
Trypsin = Trypsin (Sus scrofa, UniProt P00761); experiment: porcine trypsin inhibitors, dose response, selectivity assay for Rce1 protease inhibitor project, biochemical, quenched peptide fluorescence, cherry-pick (AID 488789)
Caspase-6 = target: T1, Caspase-6 (Homo sapiens, UniProt P55212); experiment: human caspase-6 inhibitors, dose response, biochemical, VEID-R110 fluorescence, cherry-pick (AID 720632)
T1 sequence (P55212 whole entry): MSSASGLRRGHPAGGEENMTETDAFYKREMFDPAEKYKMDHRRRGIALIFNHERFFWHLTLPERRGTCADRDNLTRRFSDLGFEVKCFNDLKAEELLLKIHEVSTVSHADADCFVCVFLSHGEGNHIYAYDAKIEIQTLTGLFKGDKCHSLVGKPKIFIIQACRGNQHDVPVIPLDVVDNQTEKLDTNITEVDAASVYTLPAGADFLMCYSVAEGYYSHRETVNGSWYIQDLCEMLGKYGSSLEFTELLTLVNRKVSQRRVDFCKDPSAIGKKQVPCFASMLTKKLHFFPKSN

CAAX prenyl protease 2 [2] = target: T2, CAAX prenyl protease 2 (Saccharomyces cerevisiae S288c, UniProt Q03530); assay type: biochemical
T2 sequence (Q03530 whole entry): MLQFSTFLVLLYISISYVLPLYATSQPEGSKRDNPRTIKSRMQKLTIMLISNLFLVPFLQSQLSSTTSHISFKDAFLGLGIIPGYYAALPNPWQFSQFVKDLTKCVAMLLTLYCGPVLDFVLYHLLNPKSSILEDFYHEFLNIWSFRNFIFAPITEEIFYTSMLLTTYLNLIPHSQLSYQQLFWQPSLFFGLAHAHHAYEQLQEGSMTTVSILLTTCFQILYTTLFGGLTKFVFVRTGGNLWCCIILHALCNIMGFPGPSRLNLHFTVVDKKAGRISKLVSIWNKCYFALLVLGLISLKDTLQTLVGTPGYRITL

[3] = target: Benomyl/methotrexate resistance protein (Candida albicans, UniProt P28873); experiment: CaMdr1 efflux pump inhibitor potency, dose response, singleplex, Cherry Pick1 hits (AID 588608); assay type: functional
[4] = target: Potassium voltage-gated channel subfamily KQT member 2 (Rattus norvegicus, UniProt O88943); experiment: KCNQ2 potassium channel inhibitors, dose response, cell-based, automated electrophysiology, set II, rat KCNQ2 (AID 588637); assay type: functional
[5] = target: Voltage-dependent T-type calcium channel subunit alpha-1H (Homo sapiens, UniProt O95180); assay type: functional;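 further: channel activity triggered by adding a high calcium stimulation buffer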
[6] = target: T3, High affinity choline transporter 1 (Homo sapiens, UniProt Q9GZV3); experiment: CHT activators, dose response, cell-based, 10-point CRC, membrane potential dye (AID 602376); assay type: functional
T3 sequence (Q9GZV3 whole entry): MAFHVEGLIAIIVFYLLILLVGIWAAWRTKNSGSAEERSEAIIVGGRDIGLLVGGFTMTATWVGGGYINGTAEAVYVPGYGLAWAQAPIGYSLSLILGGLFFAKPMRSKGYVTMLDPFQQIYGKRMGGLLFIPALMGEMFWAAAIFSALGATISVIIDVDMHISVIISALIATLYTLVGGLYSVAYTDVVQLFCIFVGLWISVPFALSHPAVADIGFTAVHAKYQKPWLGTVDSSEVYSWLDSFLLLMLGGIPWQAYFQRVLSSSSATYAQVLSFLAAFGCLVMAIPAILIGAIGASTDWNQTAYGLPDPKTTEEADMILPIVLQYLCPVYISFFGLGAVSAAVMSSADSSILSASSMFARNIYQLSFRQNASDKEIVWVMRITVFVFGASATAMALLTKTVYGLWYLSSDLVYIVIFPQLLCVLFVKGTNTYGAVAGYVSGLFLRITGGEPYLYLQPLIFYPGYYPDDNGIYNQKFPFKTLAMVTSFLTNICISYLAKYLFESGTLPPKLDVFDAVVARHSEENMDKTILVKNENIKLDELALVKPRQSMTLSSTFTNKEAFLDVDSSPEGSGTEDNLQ

[7] = target: Beta-2 adrenergic receptor (Homo sapiens, UniProt P07550); experiment: beta2AR agonists driving receptor internalization, dose response, cell-based, FAP fluorogen, flow cytometry, cherry pick 1 (AID 588763); assay type: functional
[8] = target: 72 kDa type IV collagenase (Homo sapiens, UniProt P08253); experiment: Dose Response validation of uHTS RPN11 inhibitor hits using a MMP-2 Fluorescence assay.; assay type: functional
[9] = target: 26S proteasome non-ATPase regulatory subunit 14 (Homo sapiens, UniProt O00487); experiment: inhibition of proteasome subunit RPN11 – biochemical, fluorescence polarization, uHTS hits, confirmation (AID 602368); assay type: functional
Prothrombin = Prothrombin (Bos taurus, UniProt P00735); experiment: thrombin inhibition, dose response, biochemical, fluorescence polarization, uHTS hits (AID 602369); assay type: functional
[10] = target: G-protein coupled receptor 55 (Homo sapiens, UniProt Q9Y2T6); experiment: GPR55 agonists via beta-arrestin recruitment, primary screen, imaging, U2OS cells, beta-arrestin-GFP redistribution (AID 1961); assay type: functional
[11] = target: Apoptotic protease-activating factor 1 (Homo sapiens, UniProt O14727); experiment: SAR analysis of small molecule Activators of Apaf-1 in a Fluorescent assay.; assay type: functional; conditions: read-out: EC50_Mean;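 further: caspase-3 cleavage of fluorogenic Rh110 DEVD substrate downstream of apoptosome activation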
[12] = target: T4, Sentrin-specific protease 6 (Homo sapiens, UniProt Q9GZR1); assay type: functional
T4 sequence (Q9GZR1 whole entry): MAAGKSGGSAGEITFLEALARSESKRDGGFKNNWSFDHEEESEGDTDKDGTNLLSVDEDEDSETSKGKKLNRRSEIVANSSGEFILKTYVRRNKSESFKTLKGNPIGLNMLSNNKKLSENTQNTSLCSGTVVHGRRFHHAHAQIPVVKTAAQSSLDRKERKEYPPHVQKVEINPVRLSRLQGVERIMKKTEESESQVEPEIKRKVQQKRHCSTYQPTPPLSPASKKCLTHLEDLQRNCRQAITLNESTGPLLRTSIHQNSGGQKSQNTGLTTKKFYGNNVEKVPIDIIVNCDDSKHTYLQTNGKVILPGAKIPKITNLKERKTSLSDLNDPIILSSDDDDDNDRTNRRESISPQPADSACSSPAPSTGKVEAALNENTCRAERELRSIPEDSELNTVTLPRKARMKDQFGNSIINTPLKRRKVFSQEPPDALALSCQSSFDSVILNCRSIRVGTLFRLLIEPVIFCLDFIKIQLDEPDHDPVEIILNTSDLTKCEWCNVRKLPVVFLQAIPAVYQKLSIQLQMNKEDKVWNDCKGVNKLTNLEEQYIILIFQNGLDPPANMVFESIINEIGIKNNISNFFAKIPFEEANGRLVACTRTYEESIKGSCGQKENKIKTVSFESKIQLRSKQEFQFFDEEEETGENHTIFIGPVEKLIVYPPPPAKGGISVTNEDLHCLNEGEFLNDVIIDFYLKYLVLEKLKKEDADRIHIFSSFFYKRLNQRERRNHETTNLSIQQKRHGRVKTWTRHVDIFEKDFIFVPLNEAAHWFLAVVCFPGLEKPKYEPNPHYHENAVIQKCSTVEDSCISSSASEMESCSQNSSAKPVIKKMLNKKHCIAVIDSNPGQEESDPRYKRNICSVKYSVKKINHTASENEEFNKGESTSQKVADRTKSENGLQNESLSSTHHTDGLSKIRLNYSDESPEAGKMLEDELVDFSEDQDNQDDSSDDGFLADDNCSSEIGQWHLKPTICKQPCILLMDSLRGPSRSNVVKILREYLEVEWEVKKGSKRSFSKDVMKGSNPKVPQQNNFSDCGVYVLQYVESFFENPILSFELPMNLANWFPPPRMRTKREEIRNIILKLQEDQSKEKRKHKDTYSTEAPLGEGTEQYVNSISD

[13] = target: T5, Sentrin-specific protease 7 (Homo sapiens, UniProt Q9BQF6); assay type: functional;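 further: Luminescence-based dose-response confirmation of ultra-high-throughput screening hits, measuring inhibition of SENP7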
T5 sequence (Q9BQF6 whole entry): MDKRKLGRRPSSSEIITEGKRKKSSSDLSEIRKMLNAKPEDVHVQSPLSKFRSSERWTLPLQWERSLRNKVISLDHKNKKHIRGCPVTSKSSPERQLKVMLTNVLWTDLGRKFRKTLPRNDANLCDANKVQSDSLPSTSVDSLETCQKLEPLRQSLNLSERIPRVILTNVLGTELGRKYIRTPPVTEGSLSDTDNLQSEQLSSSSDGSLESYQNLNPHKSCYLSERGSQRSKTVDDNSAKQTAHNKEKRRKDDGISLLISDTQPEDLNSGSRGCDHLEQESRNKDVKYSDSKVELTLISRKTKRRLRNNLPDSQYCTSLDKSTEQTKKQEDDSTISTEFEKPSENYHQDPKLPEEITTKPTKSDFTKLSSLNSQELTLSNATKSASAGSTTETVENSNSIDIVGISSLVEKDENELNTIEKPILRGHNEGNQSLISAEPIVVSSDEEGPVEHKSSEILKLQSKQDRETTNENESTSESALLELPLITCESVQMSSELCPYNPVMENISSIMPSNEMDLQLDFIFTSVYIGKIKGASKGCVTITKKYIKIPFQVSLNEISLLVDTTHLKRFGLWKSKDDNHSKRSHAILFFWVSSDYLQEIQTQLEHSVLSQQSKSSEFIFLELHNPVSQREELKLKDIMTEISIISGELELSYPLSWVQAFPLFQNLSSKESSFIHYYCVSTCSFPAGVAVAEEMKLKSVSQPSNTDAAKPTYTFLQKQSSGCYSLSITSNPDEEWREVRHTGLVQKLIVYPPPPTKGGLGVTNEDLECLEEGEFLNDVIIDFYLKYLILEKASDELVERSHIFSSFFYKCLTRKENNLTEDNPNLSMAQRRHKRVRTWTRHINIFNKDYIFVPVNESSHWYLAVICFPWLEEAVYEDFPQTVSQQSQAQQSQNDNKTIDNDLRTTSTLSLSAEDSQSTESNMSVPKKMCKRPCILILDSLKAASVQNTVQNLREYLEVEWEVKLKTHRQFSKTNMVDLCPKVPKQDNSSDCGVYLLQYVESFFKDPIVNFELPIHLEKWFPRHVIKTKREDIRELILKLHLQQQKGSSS

Caspase-3 [14] = target: T6, Caspase-3 (Homo sapiens, UniProt P42574); assay type: functional
T6 sequence (P42574 whole entry): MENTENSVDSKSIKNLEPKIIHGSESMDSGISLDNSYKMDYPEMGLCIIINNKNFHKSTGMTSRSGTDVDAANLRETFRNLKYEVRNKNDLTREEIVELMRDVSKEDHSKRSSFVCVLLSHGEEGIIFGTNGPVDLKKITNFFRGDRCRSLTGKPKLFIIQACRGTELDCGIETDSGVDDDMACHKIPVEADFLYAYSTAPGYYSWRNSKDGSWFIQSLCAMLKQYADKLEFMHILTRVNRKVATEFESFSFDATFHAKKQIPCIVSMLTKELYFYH

[15] = target: T7, Sentrin-specific protease 8 (Homo sapiens, UniProt Q96LD8); assay type: functional;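 further: luminescence read-out of SENP8 inhibition, dose-response confirmation following an ultra-high-throughput screen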
T7 sequence (Q96LD8 whole entry): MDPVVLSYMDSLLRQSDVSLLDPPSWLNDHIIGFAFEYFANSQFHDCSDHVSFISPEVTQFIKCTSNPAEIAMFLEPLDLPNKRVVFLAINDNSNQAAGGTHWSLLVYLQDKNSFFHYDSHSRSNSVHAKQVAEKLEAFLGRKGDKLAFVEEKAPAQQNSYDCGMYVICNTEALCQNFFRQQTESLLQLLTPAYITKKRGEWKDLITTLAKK

[16] = target: T7, Sentrin-specific protease 8; experiment: SENP8 protease inhibitors, SAR follow-up, biochemical, luminescence (AID 504501); assay type: functional
[17] = target: T4, Sentrin-specific protease 6; experiment: SAR Analysis of small molecule inhibitors of Sentrin-specific protease 6 (SENP6) using a Luminescent assay. [Related pubchem assays (depositor defined):AID2582, AID2599]; assay type: functional
Caspase-3 [18] = target: T6, Caspase-3; experiment: SAR Analysis of small molecule inhibitors of Sentrin-specific proteases (SENPs) using a Caspase-3 Selectivity assay. [Related pubchem assays (depositor defined):AID2540, AID2599, AID434973, AID489001]; assay type: functional
[19] = target: T5, Sentrin-specific protease 7; experiment: SENP7 protease inhibitors, SAR follow-up, biochemical, luminescence (AID 504497); assay type: functional

Sequence of Voltage-dependent T-type calcium channel subunit alpha-1H (O95180 whole entry): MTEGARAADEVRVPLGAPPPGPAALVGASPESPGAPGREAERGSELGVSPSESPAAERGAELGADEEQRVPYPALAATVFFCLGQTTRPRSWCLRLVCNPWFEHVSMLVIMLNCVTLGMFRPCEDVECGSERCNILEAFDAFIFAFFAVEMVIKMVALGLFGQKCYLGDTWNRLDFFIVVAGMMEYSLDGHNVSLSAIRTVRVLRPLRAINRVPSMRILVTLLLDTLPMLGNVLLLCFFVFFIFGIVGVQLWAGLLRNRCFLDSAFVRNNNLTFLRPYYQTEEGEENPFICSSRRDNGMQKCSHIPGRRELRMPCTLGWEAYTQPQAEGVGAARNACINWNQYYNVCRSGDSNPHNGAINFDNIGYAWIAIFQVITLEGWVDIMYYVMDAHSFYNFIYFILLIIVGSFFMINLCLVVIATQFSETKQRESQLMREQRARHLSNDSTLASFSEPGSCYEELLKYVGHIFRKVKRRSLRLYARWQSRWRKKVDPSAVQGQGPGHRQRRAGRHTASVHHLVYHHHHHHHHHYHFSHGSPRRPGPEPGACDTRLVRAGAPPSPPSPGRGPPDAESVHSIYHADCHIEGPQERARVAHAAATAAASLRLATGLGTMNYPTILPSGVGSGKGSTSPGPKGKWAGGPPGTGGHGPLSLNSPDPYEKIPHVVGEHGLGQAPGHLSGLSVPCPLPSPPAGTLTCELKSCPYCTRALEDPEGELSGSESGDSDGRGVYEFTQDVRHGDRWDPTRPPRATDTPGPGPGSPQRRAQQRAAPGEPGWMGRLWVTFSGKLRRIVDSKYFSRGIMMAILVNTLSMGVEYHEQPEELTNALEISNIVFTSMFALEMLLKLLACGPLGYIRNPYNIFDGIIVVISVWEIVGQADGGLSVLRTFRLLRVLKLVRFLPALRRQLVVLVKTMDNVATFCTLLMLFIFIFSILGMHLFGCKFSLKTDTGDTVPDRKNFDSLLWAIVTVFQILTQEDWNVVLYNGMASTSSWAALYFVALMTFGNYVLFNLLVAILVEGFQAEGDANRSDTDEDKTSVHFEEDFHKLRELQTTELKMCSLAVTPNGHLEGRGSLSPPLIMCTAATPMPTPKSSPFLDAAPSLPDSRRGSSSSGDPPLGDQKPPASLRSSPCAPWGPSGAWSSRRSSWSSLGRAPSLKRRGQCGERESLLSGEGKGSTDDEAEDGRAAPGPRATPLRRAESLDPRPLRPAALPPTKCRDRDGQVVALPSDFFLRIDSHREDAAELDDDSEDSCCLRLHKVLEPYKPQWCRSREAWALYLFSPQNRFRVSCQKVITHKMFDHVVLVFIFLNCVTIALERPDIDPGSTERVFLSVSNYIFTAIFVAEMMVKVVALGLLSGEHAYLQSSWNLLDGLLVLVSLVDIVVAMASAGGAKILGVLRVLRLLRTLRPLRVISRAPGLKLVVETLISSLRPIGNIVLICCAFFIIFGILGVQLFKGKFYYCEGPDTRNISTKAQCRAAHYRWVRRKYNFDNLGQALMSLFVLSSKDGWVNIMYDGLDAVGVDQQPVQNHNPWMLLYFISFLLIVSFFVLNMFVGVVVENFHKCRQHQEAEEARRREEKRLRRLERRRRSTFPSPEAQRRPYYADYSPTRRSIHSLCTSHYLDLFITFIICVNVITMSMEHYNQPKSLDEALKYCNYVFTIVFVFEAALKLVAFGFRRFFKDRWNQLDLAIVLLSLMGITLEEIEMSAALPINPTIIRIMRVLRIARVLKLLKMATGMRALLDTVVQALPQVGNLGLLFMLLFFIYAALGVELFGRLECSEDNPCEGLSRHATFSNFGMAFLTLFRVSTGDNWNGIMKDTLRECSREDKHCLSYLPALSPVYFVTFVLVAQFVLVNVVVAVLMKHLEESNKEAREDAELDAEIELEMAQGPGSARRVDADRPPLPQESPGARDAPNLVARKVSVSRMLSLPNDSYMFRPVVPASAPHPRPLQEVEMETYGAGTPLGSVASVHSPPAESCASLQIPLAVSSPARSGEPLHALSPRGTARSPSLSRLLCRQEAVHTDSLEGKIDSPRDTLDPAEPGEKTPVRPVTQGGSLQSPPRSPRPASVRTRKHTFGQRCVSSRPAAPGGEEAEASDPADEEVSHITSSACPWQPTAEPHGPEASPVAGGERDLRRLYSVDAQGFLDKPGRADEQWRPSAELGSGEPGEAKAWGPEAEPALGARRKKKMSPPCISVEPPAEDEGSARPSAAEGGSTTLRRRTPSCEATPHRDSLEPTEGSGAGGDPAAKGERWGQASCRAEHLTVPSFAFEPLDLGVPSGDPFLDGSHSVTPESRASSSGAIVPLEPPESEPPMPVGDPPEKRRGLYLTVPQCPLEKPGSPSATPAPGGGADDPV
Sequence of Trypsin (P00761 whole entry): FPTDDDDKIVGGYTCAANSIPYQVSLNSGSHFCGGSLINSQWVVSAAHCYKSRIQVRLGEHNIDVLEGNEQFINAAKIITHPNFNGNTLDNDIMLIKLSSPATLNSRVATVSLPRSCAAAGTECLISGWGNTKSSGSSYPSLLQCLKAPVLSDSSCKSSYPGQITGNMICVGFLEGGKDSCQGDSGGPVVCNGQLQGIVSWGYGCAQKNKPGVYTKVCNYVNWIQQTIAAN
Sequence of 26S proteasome non-ATPase regulatory subunit 14 (O00487 whole entry): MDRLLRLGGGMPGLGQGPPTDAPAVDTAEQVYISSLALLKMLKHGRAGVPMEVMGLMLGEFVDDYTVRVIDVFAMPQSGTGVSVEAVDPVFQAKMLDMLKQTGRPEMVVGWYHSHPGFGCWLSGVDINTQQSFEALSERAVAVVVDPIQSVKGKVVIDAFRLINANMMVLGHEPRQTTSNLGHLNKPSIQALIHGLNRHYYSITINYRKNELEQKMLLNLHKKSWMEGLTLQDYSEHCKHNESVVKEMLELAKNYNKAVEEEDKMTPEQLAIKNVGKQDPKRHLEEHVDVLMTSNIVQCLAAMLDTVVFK
Sequence of G-protein coupled receptor 55 (Q9Y2T6 whole entry): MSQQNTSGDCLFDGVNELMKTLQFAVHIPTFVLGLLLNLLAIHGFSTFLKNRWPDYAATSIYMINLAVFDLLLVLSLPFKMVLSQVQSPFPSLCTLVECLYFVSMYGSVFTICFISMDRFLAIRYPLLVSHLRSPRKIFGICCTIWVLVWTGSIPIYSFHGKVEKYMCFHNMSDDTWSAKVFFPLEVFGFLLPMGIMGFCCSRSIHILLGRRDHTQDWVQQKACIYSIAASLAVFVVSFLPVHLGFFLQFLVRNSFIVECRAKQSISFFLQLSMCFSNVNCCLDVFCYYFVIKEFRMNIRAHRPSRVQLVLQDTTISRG
Sequence of 72 kDa type IV collagenase (P08253 whole entry): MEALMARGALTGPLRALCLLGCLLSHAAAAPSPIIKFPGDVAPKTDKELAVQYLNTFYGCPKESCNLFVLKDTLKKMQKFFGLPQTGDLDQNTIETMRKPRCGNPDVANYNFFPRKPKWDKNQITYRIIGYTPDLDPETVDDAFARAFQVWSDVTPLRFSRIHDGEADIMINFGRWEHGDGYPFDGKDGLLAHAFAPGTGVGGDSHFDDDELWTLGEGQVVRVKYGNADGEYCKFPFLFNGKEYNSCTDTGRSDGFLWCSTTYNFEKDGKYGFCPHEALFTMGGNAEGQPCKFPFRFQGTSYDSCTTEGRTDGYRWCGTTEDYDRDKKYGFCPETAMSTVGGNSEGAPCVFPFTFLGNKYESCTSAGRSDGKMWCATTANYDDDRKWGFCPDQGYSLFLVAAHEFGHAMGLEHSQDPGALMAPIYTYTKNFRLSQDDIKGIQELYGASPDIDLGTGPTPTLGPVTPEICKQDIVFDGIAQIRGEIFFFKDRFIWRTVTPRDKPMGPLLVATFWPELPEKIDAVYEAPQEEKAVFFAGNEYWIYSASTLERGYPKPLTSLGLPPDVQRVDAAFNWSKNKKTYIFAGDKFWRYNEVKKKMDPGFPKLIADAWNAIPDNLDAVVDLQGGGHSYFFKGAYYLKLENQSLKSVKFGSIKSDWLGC
Sequence of CAAX prenyl protease 2 (Homo sapiens, UniProt Q9Y256) (Q9Y256 whole entry): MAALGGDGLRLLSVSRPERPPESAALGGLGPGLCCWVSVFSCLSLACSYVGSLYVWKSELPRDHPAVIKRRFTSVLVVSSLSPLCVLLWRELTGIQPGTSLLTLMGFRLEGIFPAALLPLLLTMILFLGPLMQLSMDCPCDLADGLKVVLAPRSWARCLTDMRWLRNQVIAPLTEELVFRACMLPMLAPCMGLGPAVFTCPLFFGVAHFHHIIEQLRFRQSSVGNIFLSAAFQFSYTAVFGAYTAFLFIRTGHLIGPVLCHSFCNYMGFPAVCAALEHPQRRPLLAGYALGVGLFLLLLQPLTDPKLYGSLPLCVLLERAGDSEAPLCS
Sequence of Benomyl/methotrexate resistance protein (P28873 whole entry): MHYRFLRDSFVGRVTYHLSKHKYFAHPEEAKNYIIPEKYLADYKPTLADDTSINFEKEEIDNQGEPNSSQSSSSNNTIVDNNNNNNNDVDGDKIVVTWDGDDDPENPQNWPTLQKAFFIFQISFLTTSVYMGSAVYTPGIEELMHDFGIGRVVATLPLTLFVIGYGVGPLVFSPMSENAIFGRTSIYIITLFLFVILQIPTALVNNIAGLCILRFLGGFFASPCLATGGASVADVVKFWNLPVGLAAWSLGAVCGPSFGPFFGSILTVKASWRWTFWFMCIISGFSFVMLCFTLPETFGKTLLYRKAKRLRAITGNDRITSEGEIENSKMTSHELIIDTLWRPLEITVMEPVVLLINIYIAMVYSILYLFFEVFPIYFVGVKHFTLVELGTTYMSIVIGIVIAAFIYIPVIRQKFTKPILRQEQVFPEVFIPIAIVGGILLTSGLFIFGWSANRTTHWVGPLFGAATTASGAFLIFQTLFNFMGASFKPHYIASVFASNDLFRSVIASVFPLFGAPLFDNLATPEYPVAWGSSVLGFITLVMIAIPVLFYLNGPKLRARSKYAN

Compound: CC1(C)CNC(=O)c2sc(NC(=O)c3ccccc3)nc2C1
- AC50 (HeLa): 55 µM (active)

- AC50 (CAAX prenyl protease 2 [1]): 2.25 µM (active)
- AC50 (Trypsin): 7.3 µM (active)
- AC50 (Caspase-6): 37.8 µM (active)
- AC50 (CAAX prenyl protease 2 [2]): 32.3 µM (active)
Compound: Nc1ccc(Cc2ccc(N)c(C(=O)O)c2)cc1C(=O)O

Compound: COc1ccc(C2CC(c3ccccc3C(F)(F)F)=NN2c2ccc(S(N)(=O)=O)cc2)cc1 (stereo unspecified)
- EC50 [3]: 22.6 µM (active)

- IC50 [4]: 1.76 µM (active)
- EC50 [5]: 3.95 µM (active)
Compound: COc1ccc(-c2nc(CSCC(=O)NC3CCCc4ccccc43)c(C)o2)cc1 (stereo unspecified)

Compound: Fc1ccc(C(c2nnnn2C2CCCC2)N(Cc2ccco2)CC2CCCO2)cc1 (stereo unspecified)
- EC50 [5]: 3.83 µM (active)
- EC50 [6]: 14.5 µM (active)

- EC50 [7]: 792 nM (active)
Compound: Cc1ccc(OCc2cc(C(=O)NCc3ccc(OC(F)(F)F)cc3)no2)cn1

- IC50 [8]: > 100 µM (inactive)
- IC50 [9]: 14.1 µM (active)
- IC50 (Prothrombin): 26.8 µM (active)
Compound: CC1CCN(c2ccc3c(c2)S(=O)(=O)c2cccc(C(=O)NC4CCCCC4)c2C3=O)CC1

Compound: CCc1ccc(Nc2n[n+](-c3ccccc3)c(-c3ccc(SC)cc3)s2)cc1
- EC50 [10]: 23.1 µM (inactive)
- EC50 [6]: 10.2 µM (active)

- EC50 [11]: > 100 µM (inactive)
Compound: O=C(Nc1cccc(O)c1)C1CC(c2ccc(F)cc2)=NO1 (stereo unspecified)

Compound: C/C(=N/OC(=O)CC(C)C)c1cc(-c2ccc(Cl)cc2)no1
- AC50 (HeLa): 58.7 µM (active)

- IC50 [12]: > 100 µM (inactive)
- IC50 [13]: 2.41 µM (active)
- IC50 (Caspase-3 [14]): 18.6 µM (active)
- IC50 [17]: > 99 µM (inactive)
- IC50 (Caspase-3 [18]): 9.05 µM (active)
- IC50 [19]: 2.33 µM (active)
Compound: Cc1ccc(NC(=O)C(=O)c2c[nH]c3ccccc23)cc1
- IC50 [15]: > 100 µM (inactive)
- IC50 [16]: > 99 µM (inactive)

From ChEMBL document CHEMBL1201862, “PubChem BioAssay data set” (2004)
